Our source for the IC50 values is US20100168102A9, “Amide Derivatives as Kinase Inhibitors” (Devgen NV, priority 2005, published 2010).

Like-named read-outs stand apart in the source and are kept apart here.

One assay addresses T1, PKC epsilon (Homo sapiens, UniProt Q02156).
T1 construct: purchased Invitrogen P2282
T1 sequence (Q02156 1-737): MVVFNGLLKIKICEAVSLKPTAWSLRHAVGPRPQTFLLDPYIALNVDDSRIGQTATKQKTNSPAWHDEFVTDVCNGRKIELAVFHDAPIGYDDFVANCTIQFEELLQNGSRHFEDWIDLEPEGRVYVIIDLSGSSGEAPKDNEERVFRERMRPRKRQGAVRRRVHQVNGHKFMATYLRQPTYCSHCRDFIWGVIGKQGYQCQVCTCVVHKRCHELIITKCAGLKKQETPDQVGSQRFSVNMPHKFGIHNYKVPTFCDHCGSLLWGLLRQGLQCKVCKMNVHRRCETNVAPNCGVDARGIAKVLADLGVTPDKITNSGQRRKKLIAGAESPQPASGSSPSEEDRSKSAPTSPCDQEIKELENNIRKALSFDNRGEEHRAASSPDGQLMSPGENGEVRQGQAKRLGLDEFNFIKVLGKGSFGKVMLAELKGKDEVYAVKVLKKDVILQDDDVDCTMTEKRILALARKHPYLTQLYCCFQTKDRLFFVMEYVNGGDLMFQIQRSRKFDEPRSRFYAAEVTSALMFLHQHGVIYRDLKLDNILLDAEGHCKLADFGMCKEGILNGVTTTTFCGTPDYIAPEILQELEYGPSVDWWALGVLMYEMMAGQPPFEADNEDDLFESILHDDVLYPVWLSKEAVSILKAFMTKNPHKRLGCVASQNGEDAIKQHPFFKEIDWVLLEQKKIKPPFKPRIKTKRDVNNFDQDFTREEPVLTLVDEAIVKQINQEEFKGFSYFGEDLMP
Description: Biochemical assay for PKC epsilon (fluorescence polarization, Protein Kinase C Assay Kit, Red). As to conditions: read-out: IC50 μM PKCε. The method, then:
The compounds were tested for inhibition of PKC epsilon.
The inhibition assays were performed with a fluorescence polarization (FP) assay using the commercially available Protein Kinase C Assay Kit, Red, from Invitrogen (Product ID. No. P2941), essentially in accordance with the protocol supplied by the manufacturer. […] The isozyme PKC epsilon was also obtained from Invitrogen (Product ID No. P2282).
Staurosporine was used as a positive control (2 μM).
To perform the assay, 2 μl of a solution of the compound to be tested in DMSO (at each concentration) was added to 6 μl of a solution of the enzyme in 10 mM HEPES, 5 mM dithiotreitol, 0.1% Triton X-100, pH 7.4. The final concentration of the enzymes was 10 ng/ml.
After incubating for 30 minutes at room temperature, 4 μl of a mixture of ATP and the protein substrate in 60 mM HEPES (pH7.4), 15 mM MgCl2, 0.3 mM CaCl2, 0.06% NP40 was added.
After incubating for 80 minutes at room temperature, 3 μl of a mix solution of 500 mM EDTA (stop solution) and the Rhodamine-based PKC Red Tracer (from the Protein Kinase C Assay Kit) in BGG/phosphate buffer (pH7.4) with 0.02% NaN3 and 0.1% Triton X-100 was added and 5 μl of a the Anti-Phosphoserine antibody (also from the Protein Kinase C Assay Kit) in BGG/phosphate buffer (pH7.4) with 0.02% NaN3.
The results were fitted to a curve using the XL-Fit algorithm and […] were calculated for each fitted curve, again using the XL-Fit algorithm.

In a further assay the target is T2, human ROCKα/ROCKII mix (Homo sapiens, UniProt O75116).
T2 construct: purchased Upstate Biotechnology 14-451
T2 sequence (O75116 11-552 limits assumed): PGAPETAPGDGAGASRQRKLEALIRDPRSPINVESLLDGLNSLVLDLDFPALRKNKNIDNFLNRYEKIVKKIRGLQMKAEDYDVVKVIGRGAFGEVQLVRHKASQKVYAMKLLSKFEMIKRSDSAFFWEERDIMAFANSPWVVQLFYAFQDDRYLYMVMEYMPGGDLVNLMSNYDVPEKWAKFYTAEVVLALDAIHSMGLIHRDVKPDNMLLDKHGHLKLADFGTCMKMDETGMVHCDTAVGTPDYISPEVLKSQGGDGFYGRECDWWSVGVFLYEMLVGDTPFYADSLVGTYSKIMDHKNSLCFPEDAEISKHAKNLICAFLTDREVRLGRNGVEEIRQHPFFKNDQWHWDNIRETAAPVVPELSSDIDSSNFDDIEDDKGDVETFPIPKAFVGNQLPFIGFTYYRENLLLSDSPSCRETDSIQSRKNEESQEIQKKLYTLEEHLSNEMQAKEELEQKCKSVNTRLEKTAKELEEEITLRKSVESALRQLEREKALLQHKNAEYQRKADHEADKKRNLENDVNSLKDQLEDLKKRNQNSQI
Description: Biochemical assay for ROCK (fluorescence polarization, ROCK IMAP Kit). The method, then:
The compounds were tested for inhibition of human ROCKα/ROCKII mix.
The inhibition assays were performed with a fluorescence polarization (FP) assay using the commercially available ROCK IMAP Kit from Molecular Devices (Product ID. No. R8093), essentially in accordance with the protocol supplied by the manufacturer. […] The enzyme mix ROCKα/ROCKII was obtained from Upstate Biotechnology (Product ID No 14-451).
In summary, the compound was screened in the wells of a 384 well plate for enzymatic inhibition with concentrations varying from 100 μM to 0.3 nM using a stepwise 3 (or 2)-fold dilution.
To perform the assay, 1 μl of a solution of the compound to be tested in DMSO (at each concentration) was added to 2 μl of a solution of the enzyme in 10 mM Tris-HCl , 10 mM MgCl2, 0.1% BSA, 0.05% NaN3, pH 7.2. The final concentration of the enzyme was 2.6 nM.
After incubating for 30 minutes at room temperature, 2 μl of a mixture of ATP and the protein substrate in 10 mM Tris-HCl, 10 mM MgCl2, 0.1% BSA, 0.05% NaN3, pH 7.2 was added. The final concentration of the ATP was 10 μM and final concentration of protein substrate was 0.2 μM.
After incubating for 60 minutes at room temperature, 12 μl of the IMAP Binding Solution (mix of the IMAP Binding Buffer A (1×) and the IMAP Binding Reagent (from the ROCK IMAP kit)) was added.
The mixture thus obtained (total volume: 17 μl) was incubated for 60 minutes at room temperature, upon which the fluorescence polarization was measured using an automated plate reader (Perkin Elmer, Model Envision 2100-0010 HTS) with FP filters: excitation filter FITC FP 480 and emission filters FITC FP P-pol 535 and FITC FP S-pol 535 (Perkin-Elmer). The results were fitted to a curve using the XL-Fit algorithm and IC50 values were calculated for each fitted curve, again using the XL-Fit algorithm.
(In general: Fluorescence polarisation rises when a labelled molecule tumbles more slowly, as on binding a larger partner.)

[1] abbreviates: compounds of Formula XIV, Table 3.
[2] abbreviates: Table 2, compounds of Formula XIII.

The term IC50 denotes the concentration at which inhibition is half-maximal. In the case of “4-(1-Amino-2- phenethylcarbamoyl-ethyl)- N-pyridin-4-yl-benzamide [Compound 281]”, the concentration for half-maximal inhibition (IC50) on PKC epsilon (setting [1]) was in the range of 0.5 to 5 µM; against human ROCKα/ROCKII mix (setting [1]), 0.05 to 0.5 µM. As for “4-(1-Amino-2-nonanoylamino-ethyl)- N-pyridin-4-yl-benzamide [Compound 38]”, the half-inhibitory concentration (IC50) was in the range of 0.5 to 5 µM at PKC epsilon (setting [2]) and 0.05 to 0.5 µM on human ROCKα/ROCKII mix (setting [2]).

“4-(1-Amino-2-{[1-(4-chloro- phenyl)- cyclobutanecarbonyl]- methyl- amino}-ethyl)- N-pyridin-4-yl-benzamide [Compound 464]”: the half-maximal inhibitory concentration (IC50) against human ROCKα/ROCKII mix fell in the range of 0.5 to 5 µM. Same read-out and setting: under “4-(1-Amino-2-{[1-(4-chloro- phenyl)- cyclopentanecarbonyl]- methyl- amino}-ethyl)- N-pyridin-4-yl-benzamide [Compound 465]” stands 0.5 to 5 µM; under “4-(1-Amino-2-{[1-(4-chloro- phenyl)- cyclopropanecarbonyl]- methyl- amino}-ethyl)- N-pyridin-4-yl-benzamide [Compound 463]”, 0.5 to 5 µM. Same read-out and setting: under “4-(1-Amino-2-{[1-(4-fluoro- phenyl)- cyclopropanecarbonyl]- methyl- amino}-ethyl)- N-pyridin-4-yl-benzamide [Compound 473]” stands 0.5 to 5 µM; under “4-(1-Amino-2-{[2-(2,3,4- trimethoxy-phenyl)-acetyl]- methyl-amino}-ethyl)-N- pyridin-4-yl-benzamide [Compound 431]”, 5 to 50 µM. As for “4-(1-Amino-2-{[2-(2-fluoro- phenyl)-acetyl]-methyl- amino}-ethyl)- N-pyridin-4-yl-benzamide [Compound 466]”, the IC50 at PKC epsilon lay within 5 to 50 µM; against human ROCKα/ROCKII mix it was 0.5 to 5 µM. In the same order, the values of “4-(1-Amino-2-{[2-(3-bromo- phenyl)-acetyl]-methyl- amino}-ethyl)- N-pyridin-4-yl-benzamide [Compound 456]” are 5 to 50 µM and 0.5 to 5 µM. “4-(1-Amino-2-{[2-(3-chloro- phenyl)-acetyl]-methyl- amino}-ethyl)- N-pyridin-4-yl-benzamide [Compound 459]”: the IC50 lay in the range of 5 to 50 µM at PKC epsilon and 0.5 to 5 µM against human ROCKα/ROCKII mix. In the same order, the values of “4-(1-Amino-2-{[2-(3-fluoro-4- methoxy-phenyl)-acetyl]- methyl- amino}-ethyl)- N-pyridin-4-yl-benzamide [Compound 470]” are 5 to 50 µM and 0.5 to 5 µM. As for “4-(1-Amino-2-{[2-(3-fluoro- phenyl)-acetyl]-methyl- amino}-ethyl)- N-pyridin-4-yl-benzamide [Compound 468]”, the values for the half-inhibitory concentration (IC50) at PKC epsilon and against human ROCKα/ROCKII mix were 5 to 50 µM and 0.5 to 5 µM, respectively.

Molecule “4-(1-Amino-2-{[2-(4-chloro- phenyl)-2-methyl-propionyl]- methyl- amino}-ethyl)- N-pyridin-4-yl-benzamide [Compound 462]” gave an IC50 at human ROCKα/ROCKII mix of 0.5 to 5 µM.

On to “4-(1-Amino-2-{[2-(4-fluoro- phenyl)-2-methyl-propionyl]- methyl- amino}-ethyl)- N-pyridin-4-yl-benzamide [Compound 472]”, for which the IC50 at human ROCKα/ROCKII mix was in the range of 0.5 to 5 µM. Molecule “4-(Amino-{1-[2-(4-fluoro-phenyl)-2-methyl-propionyl]-pyrrolidin-2-yl}-methyl)-N-pyridin-4-yl-benzamide [Compound 586]” came in with an IC50 against human ROCKα/ROCKII mix of 0.5 to 5 µM. As to “4-[1-Amino-2-(methyl- phenethyl-carbamoyl)-ethyl]- N-pyridin-4-yl-benzamide [Compound 282]”, at human ROCKα/ROCKII mix (setting [1]), the IC50 was 0.05 to 0.5 µM.

“4-{Amino-[1-(2-methyl-2-thiophen-2-yl-propionyl)-pyrrolidin-2-yl]-methyl}-N-pyridin-4-yl-benzamide [Compound 548]” gave an IC50 against human ROCKα/ROCKII mix of 0.5 to 5 µM. Still for that read-out and setting: under `Cc1ccccc1CNC(=O)NCC(N)c1ccc(C(=O)Nc2ccncc2)cc1` (stereo not shown) [Compound 9, 4-{1-amino-2-[3-(2-methyl-benzyl)-ureido]-ethyl}-N-pyridin-4-yl-benzamide] stands 0.05 to 0.5 µM; under `COc1ccc(CNC(=O)NCC(N)c2ccc(C(=O)Nc3ccncc3)cc2)cc1` (stereo not shown) [Compound 10, 4-{1-amino-2-[3-(4-methoxy-benzyl)-ureido]-ethyl}-N-pyridin-4-yl-benzamide], 0.05 to 0.5 µM. Still for that read-out and setting: then `NC(CNC(=O)Nc1ccc(F)cc1)c1ccc(C(=O)Nc2ccncc2)cc1` (stereo not shown) [Compound 19, 4-{1-amino-2-[3-(4-fluoro-phenyl)-ureido]-ethyl}-N-pyridin-4-yl-benzamide], with 0.05 to 0.5 µM; and `COc1ccc(Cl)cc1NC(=O)NCC(N)c1ccc(C(=O)Nc2ccncc2)cc1` (stereo not shown) [Compound 27, 4-{1-amino-2-[3-(5-chloro-2-methoxy-phenyl)-ureido]-ethyl}-N-pyridin-4-yl-benzamide], with 0.05 to 0.5 µM. With `NC(CNC(=O)c1ccc2ccccc2n1)c1ccc(C(=O)Nc2ccncc2)cc1` (stereo not shown) [Compound 112, Quinoline-2-carboxylic acid {2-amino-2-[4-(pyridin-4-ylcarbamoyl)-phenyl]-ethyl}-amide], at human ROCKα/ROCKII mix (setting [2]), the IC50 was 0.05 to 0.5 µM.

The molecule `CN(Cc1ccccc1)C(=O)CC(N)c1ccc(C(=O)Nc2ccncc2)cc1` (stereo not shown) [Compound 214, 4-[1-Amino-2-(benzyl-methyl-carbamoyl)-ethyl]-N-pyridin-4-yl-benzamide] yielded an IC50 on human ROCKα/ROCKII mix (setting [1]) of 0.05 to 0.5 µM. At human ROCKα/ROCKII mix (setting [1]), `Cc1ccc(NC(=O)CC(N)c2ccc(C(=O)Nc3ccncc3)cc2)cc1` (stereo not shown) [Compound 317, 4-(1-Amino-2-p-tolylcarbamoyl-ethyl)-N-pyridin-4-yl-benzamide] displayed a half-maximal inhibitory concentration (IC50) of 0.05 to 0.5 µM. `CN(CC(N)c1ccc(C(=O)Nc2ccncc2)cc1)C(=O)Cc1ccc(F)c(F)c1` (stereo not shown) [Compound 484, 4-(1-Amino-2-{[2-(3,4-difluoro-phenyl)-acetyl]-methyl-amino}-ethyl)-N-pyridin-4-yl-benzamide] had an IC50 on human ROCKα/ROCKII mix of 0.5 to 5 µM. Still for that read-out and setting: then `CN(CC(N)c1ccc(C(=O)Nc2ccncc2)cc1)C(=O)C1CC(=O)c2ccccc21` (stereo not shown) [Compound 508, 3-Oxo-indan-1-carboxylic acid {2-amino-2-[4-(pyridin-4-ylcarbamoyl)-phenyl]-ethyl}-methyl-amide], with 0.5 to 5 µM; and `CC(C)(C(=O)N1CCCC1C(N)c1ccc(C(=O)Nc2ccncc2)cc1)c1ccsc1` (stereo not shown) [Compound 550, 4-{Amino-[1-(2-methyl-2-thiophen-3-yl-propionyl)-pyrrolidin-2-yl]-methyl}-N-pyridin-4-yl-benzamide], with 0.5 to 5 µM.
